Measured values taken from ChEMBL document CHEMBL3784995, “Inhibitors of HIV-1 maturation: Development of structure-activity relationship for C-28 amides based on C-3 benzoic acid-modified triterpenoids” (Bioorg Med Chem Lett, 2016).

Experiments:
[1] = Plasma clearance in cannula implanted rat at 1 mg/kg, iv by LC-MS/MS analysis; type: ADME, organism-based
[2] = Cmax in cannula implanted rat at 5 mg/kg administered through oral gavage after 24 hrs by LC-MS/MS analysis; type: ADME, organism-based; set-up: dose 5 mg/kg, route oral; conditions: in vivo
[3] = tested on: Human immunodeficiency virus 1; test: Antiviral activity against wild type HIV1 NL4-3 habouring Gag protein V370A mutant infected in human MT2 cells after 4 to 5 days by dual-luciferase reporter gene assay; type: functional, organism-based; conditions: Human immunodeficiency virus 1, NL4-3, MT2
[4] = AUC (0 to 6 hrs) in cannula implanted rat at 5 mg/kg administered through oral gavage after 24 hrs by LC-MS/MS analysis; type: ADME, organism-based; set-up: dose 5 mg/kg, time < 6 hr, route oral; conditions: in vivo
[5] = tested on: Human immunodeficiency virus 1; test: Antiviral activity against wild type HIV1 NL4-3 habouring Gag protein delta V370 infected in human MT2 cells after 4 to 5 days by dual-luciferase reporter gene assay; type: functional, organism-based; conditions: Human immunodeficiency virus 1, NL4-3, MT2
[6] = tested on: Human immunodeficiency virus 1; test: Antiviral activity against wild type HIV1 NL4-3 infected in human MT2 cells after 4 to 5 days by dual-luciferase reporter gene assay; type: functional, organism-based; conditions: Human immunodeficiency virus 1, NL4-3, MT2
[7] = Cytotoxicity against human MT2 cells; type: cell-based
[8] = tested on: Human immunodeficiency virus 1; test: Antiviral activity against wild type HIV1 NL4-3 infected in human MT2 cells after 4 to 5 days by dual-luciferase reporter gene assay in presence of human serum albumin; type: functional, organism-based; conditions: Human immunodeficiency virus 1, NL4-3, MT2

| SMILES | clearance [1] | Cmax [2] | EC50 [3] | AUC(0-t) at 6 h [4] | EC50 [5] | EC50 [6] | CC50 [7] | EC50 [8] |
| --- | --- | --- | --- | --- | --- | --- | --- | --- |
| C=C(C)[C@@H]1CC[C@]2(C(=O)NCCC(C)C)CC[C@]3(C)[C@H](CC[C@@H]4[C@@]5(C)CC=C(c6ccc(C(=O)O)cc6)C(C)(C)[C@@H]5CC[C@]43C)[C@@H]12 | 0.6 mL/min/kg | 731 nM | 101 nM | 1.58 µM·h | 1610 nM | 47 nM | 11000 nM | – |
| C=C(C)[C@@H]1CC[C@]2(C(=O)NC)CC[C@]3(C)[C@H](CC[C@@H]4[C@@]5(C)CC=C(c6ccc(C(=O)O)cc6)C(C)(C)[C@@H]5CC[C@]43C)[C@@H]12 | – | – | 252 nM | – | – | 10 nM | 7000 nM | 28 nM |
| C=C(C)[C@@H]1CC[C@]2(C(=O)NCCN)CC[C@]3(C)[C@H](CC[C@@H]4[C@@]5(C)CC=C(c6ccc(C(=O)O)cc6)C(C)(C)[C@@H]5CC[C@]43C)[C@@H]12 | – | – | 7 nM | – | 702 nM | 3 nM | 4000 nM | – |
| C=C(C)[C@@H]1CC[C@]2(C(=O)N[C@@H](CN(C)C)C(=O)O)CC[C@]3(C)[C@H](CC[C@@H]4[C@@]5(C)CC=C(c6ccc(C(=O)O)cc6)C(C)(C)[C@@H]5CC[C@]43C)[C@@H]12 | – | – | 772 nM | – | > 160 nM | 46 nM | 25000 nM | – |
| C=C(C)[C@@H]1CC[C@]2(C(=O)NCC(=O)O)CC[C@]3(C)[C@H](CC[C@@H]4[C@@]5(C)CC=C(c6ccc(C(=O)O)cc6)C(C)(C)[C@@H]5CC[C@]43C)[C@@H]12 | – | – | > 2000 nM | – | > 2000 nM | 106 nM | > 50000 nM | – |
| C=C(C)[C@@H]1CC[C@]2(C(=O)NCCN(C)C(C)=O)CC[C@]3(C)[C@H](CC[C@@H]4[C@@]5(C)CC=C(c6ccc(C(=O)O)cc6)C(C)(C)[C@@H]5CC[C@]43C)[C@@H]12 | – | – | 2 nM | – | 224 nM | 3 nM | 9000 nM | – |
| C=C(C)[C@@H]1CC[C@]2(C(=O)NCCN(CC)CC)CC[C@]3(C)[C@H](CC[C@@H]4[C@@]5(C)CC=C(c6ccc(C(=O)O)cc6)C(C)(C)[C@@H]5CC[C@]43C)[C@@H]12 | 3.3 mL/min/kg | 229 nM | 7 nM | 0.809 µM·h | 39 nM | 2 nM | 33000 nM | – |
| C=C(C)[C@@H]1CC[C@]2(C(=O)NCC(N)=O)CC[C@]3(C)[C@H](CC[C@@H]4[C@@]5(C)CC=C(c6ccc(C(=O)O)cc6)C(C)(C)[C@@H]5CC[C@]43C)[C@@H]12 | – | – | 32 nM | – | 2000 nM | 6 nM | 9000 nM | – |
| C=C(C)[C@@H]1CC[C@]2(C(=O)NCCN(C)CC(=O)O)CC[C@]3(C)[C@H](CC[C@@H]4[C@@]5(C)CC=C(c6ccc(C(=O)O)cc6)C(C)(C)[C@@H]5CC[C@]43C)[C@@H]12 | – | – | 51 nM | – | 160 nM | 10 nM | 200 nM | – |
| C=C(C)[C@@H]1CC[C@]2(C(=O)N3CCCCC3)CC[C@]3(C)[C@H](CC[C@@H]4[C@@]5(C)CC=C(c6ccc(C(=O)O)cc6)C(C)(C)[C@@H]5CC[C@]43C)[C@@H]12 | – | – | – | – | – | 369 nM | 200 nM | 1580 nM |
| C=C(C)[C@@H]1CC[C@]2(C(=O)NCC(C)(C)N)CC[C@]3(C)[C@H](CC[C@@H]4[C@@]5(C)CC=C(c6ccc(C(=O)O)cc6)C(C)(C)[C@@H]5CC[C@]43C)[C@@H]12 | – | – | 21 nM | – | 800 nM | 7 nM | 20000 nM | – |
| C=C(C)[C@@H]1CC[C@]2(C(=O)NCCO)CC[C@]3(C)[C@H](CC[C@@H]4[C@@]5(C)CC=C(c6ccc(C(=O)O)cc6)C(C)(C)[C@@H]5CC[C@]43C)[C@@H]12 | – | – | 41 nM | – | > 2000 nM | 7 nM | 7000 nM | 39 nM |
| C=C(C)[C@@H]1CC[C@]2(C(=O)NCCNCC(=O)O)CC[C@]3(C)[C@H](CC[C@@H]4[C@@]5(C)CC=C(c6ccc(C(=O)O)cc6)C(C)(C)[C@@H]5CC[C@]43C)[C@@H]12 | – | – | 15 nM | – | 61 nM | 42 nM | > 2000 nM | – |
| C=C(C)[C@@H]1CC[C@]2(C(=O)NS(C)(=O)=O)CC[C@]3(C)[C@H](CC[C@@H]4[C@@]5(C)CC=C(c6ccc(C(=O)O)cc6)C(C)(C)[C@@H]5CC[C@]43C)[C@@H]12 | – | – | 282 nM | – | – | 47 nM | 16000 nM | 1520 nM |
| C=C(C)[C@@H]1CC[C@]2(C(=O)NCCN(CC(=O)O)CC(=O)O)CC[C@]3(C)[C@H](CC[C@@H]4[C@@]5(C)CC=C(c6ccc(C(=O)O)cc6)C(C)(C)[C@@H]5CC[C@]43C)[C@@H]12 | – | – | > 2000 nM | – | > 2000 nM | > 2000 nM | > 20000 nM | – |
| C=C(C)[C@@H]1CC[C@]2(C(=O)NCCN(CC)CCC(=O)O)CC[C@]3(C)[C@H](CC[C@@H]4[C@@]5(C)CC=C(c6ccc(C(=O)O)cc6)C(C)(C)[C@@H]5CC[C@]43C)[C@@H]12 | – | – | 6 nM | – | 119 nM | 2 nM | > 17000 nM | – |
| C=C(C)[C@@H]1CC[C@]2(C(=O)NCCN3CCOCC3)CC[C@]3(C)[C@H](CC[C@@H]4[C@@]5(C)CC=C(c6ccc(C(=O)O)cc6)C(C)(C)[C@@H]5CC[C@]43C)[C@@H]12 | – | – | 12 nM | – | 77 nM | 7 nM | 5000 nM | 28 nM |
| C=C(C)[C@@H]1CC[C@]2(C(=O)NCCN3CCCCC3)CC[C@]3(C)[C@H](CC[C@@H]4[C@@]5(C)CC=C(c6ccc(C(=O)O)cc6)C(C)(C)[C@@H]5CC[C@]43C)[C@@H]12 | – | – | 10 nM | – | 359 nM | 7 nM | 10000 nM | – |
| C=C(C)[C@@H]1CC[C@]2(C(=O)NCc3ccccn3)CC[C@]3(C)[C@H](CC[C@@H]4[C@@]5(C)CC=C(c6ccc(C(=O)O)cc6)C(C)(C)[C@@H]5CC[C@]43C)[C@@H]12 | – | – | 31 nM | – | – | 5 nM | 1000 nM | 9 nM |
| C=C(C)[C@@H]1CC[C@]2(C(=O)NS(=O)(=O)C3CC3)CC[C@]3(C)[C@H](CC[C@@H]4[C@@]5(C)CC=C(c6ccc(C(=O)O)cc6)C(C)(C)[C@@H]5CC[C@]43C)[C@@H]12 | – | – | 67 nM | – | 1190 nM | 59 nM | 18000 nM | 166 nM |
| C=C(C)[C@@H]1CC[C@]2(C(=O)NCCOC)CC[C@]3(C)[C@H](CC[C@@H]4[C@@]5(C)CC=C(c6ccc(C(=O)O)cc6)C(C)(C)[C@@H]5CC[C@]43C)[C@@H]12 | – | – | 152 nM | – | – | 17 nM | 14000 nM | – |
| C=C(C)[C@@H]1CC[C@]2(C(=O)NCc3nccs3)CC[C@]3(C)[C@H](CC[C@@H]4[C@@]5(C)CC=C(c6ccc(C(=O)O)cc6)C(C)(C)[C@@H]5CC[C@]43C)[C@@H]12 | – | – | 28 nM | – | 690 nM | 15 nM | 6000 nM | – |
| C=C(C)[C@@H]1CC[C@]2(C(=O)NCCNC(C)=O)CC[C@]3(C)[C@H](CC[C@@H]4[C@@]5(C)CC=C(c6ccc(C(=O)O)cc6)C(C)(C)[C@@H]5CC[C@]43C)[C@@H]12 | – | – | 24 nM | – | 361 nM | 5 nM | 12000 nM | 22 nM |
